One data set deals with M. marinum luxCDABE. It counts as cell-based, Mycobacterium marinum.
The test system of the next data set is M. marinum GFP. It counts as cell-based, Mycobacterium marinum. Particulars: for M. marinum GFP normalised growth, control=1.00, mean: 10 µM, antibiotic assay; for antibiotic activity in M. marinum growth assay: broth.
Data set [1] has as its system M. marinum in A. castellanii. It counts as cell-based, Mycobacterium marinum.
Data set [2] deals with M. marinum in BV2 microglial cells. In kind it is cell-based, Mycobacterium marinum.
Data set [3] concerns M. bovis BCG pMV261 (empty plasmid). In kind it is cell-based, Mycobacterium bovis BCG.
The test system of another data set is M. bovis BCG pMV261-murC. In kind it is cell-based, Mycobacterium bovis BCG.
A further data set concerns D. discoideum GFP-ABD. Particulars: for D. discoideum GFP-ABD normalised growth, control=1.00, mean: 10 µM.
Another data set relates to Mtb H37Rv in THP-1. More on the design: method as in Sorrentino et al, 2015. Particulars: ref Sorrentino et al, 2015, cited from earlier work; for Intracelullar MIC90 in THP-1: THP1 / Mtb H37Rv infection assay; for Extracellular MIC90/ Inracellular MIC90: ratio.
The test system of the next data set is Mtb H37Rv. The arrangement: method as in Sorrentino et al, 2015. The settings on record: ref Sorrentino et al, 2015; cited from earlier work.
In another data set the test system is M. bovis BCG pMV261-fbpA. In kind it is cell-based, Mycobacterium bovis BCG.
For data set [4] the following is noted: not told; cited from earlier work.

The IC50 is the concentration that gives 50% inhibition.

“Also recorded” adds a separate entry of the source.

Turning to `CC(C)OC(=O)COc1ccc(-c2cnc(N(C)CCc3ccncc3)nc2)cc1` [GSK831784A], in the data set with M. marinum luxCDABE (10 µM), the “M. marinum luxCDABE normalised growth, control = 1.00, mean” value is listed as 0,00 and the “M. marinum luxCDABE normalised growth, control=1.00, mean” value is listed as 0.00. In addition, in the data set with M. marinum GFP, the “M. marinum GFP normalised growth, control=1.00, mean” value came out at 0.10 and the “antibiotic activity in M. marinum growth assay” value (shortened to “antibiotic activity”) was “strong antibiotic activity”. For the same molecule, in data set [1] (10 µM), the “A. castellanii / M. marinum normalised growth, control=1.00, mean” value is 0.20 and the “Hits A. castellanii/M. marinum assay True/False” value is listed as “TRUE”. The IC50 in data set [2] is 15 µM. In data set [2] (10 µM), the “BV2 / M. marinum normalised growth, control=1.00, mean” value was 0.97 and the “hit in BV2/M. marinum assay True/False” value is recorded as “FALSE”. For the same molecule, in data set [3], the “pXC50(1)” value amounted to 4.96 and the “pXC50(2)” value was 4.97. Moreover, in the data set on M. bovis BCG pMV261-murC, the “pIC50 Shift (1)” value came to 0.32, the “pIC50 Shift (2)” value worked out at 0.42, the “pXC50(1)” value is reported as 4.64 and the “pXC50(2)” value is recorded as 4.55. The “D. discoideum GFP-ABD normalised growth, control=1.00, mean” value in the data set with D. discoideum GFP-ABD is listed as 0.98.
Consider `Cc1ccc2nc(C)c(-c3ccn(Cc4ccccc4)n3)n2c1` [GSK847920A], for which the “M. marinum luxCDABE normalised growth, control=1.00, mean” value with M. marinum luxCDABE (10 µM) stood at 0.11. Moreover, in the data set with M. marinum GFP, the “M. marinum GFP normalised growth, control=1.00, mean” value is 0.36 and the “antibiotic activity” value is on record as “strong antibiotic activity”. In addition, the “A. castellanii / M. marinum normalised growth, control=1.00, mean” value in [1] (10 µM) is 1.17. The molecule also showed an IC50 in data set [2] of 3.29 µM. In addition, the “BV2 / M. marinum normalised growth, control=1.00, mean” value in [2] (10 µM) was determined as 0.95. Also, in data set [3], the “pXC50(1)” value is 5.94 and the “pXC50(2)” value turned out to be 5.99. In the data set on M. bovis BCG pMV261-murC, the “pIC50 Shift (1)” value was 0.49, the “pIC50 Shift (2)” value came to 0.54, the “pXC50(1)” value was found to be 5.45 and the “pXC50(2)” value is reported as 5.45. In addition, the “D. discoideum GFP-ABD normalised growth, control=1.00, mean” value in the data set on D. discoideum GFP-ABD is reported as 0.34. Also, in the data set on Mtb H37Rv in THP-1, the “Intracelullar MIC90 in THP-1” value was 1.85 µM and the “Extracellular MIC90/ Inracellular MIC90” value was 2.7. Moreover, the “Extracellular MIC90” value with Mtb H37Rv is 5 µM.
For the molecule `O=C(C1CCN(c2nnc(-n3cccc3)s2)CC1)N1CCC(Cc2ccccc2)CC1` [GSK2032710A], in the data set with M. marinum luxCDABE, the “Antibiotic assays: M. marinum luxCDABE” value is 0.00. The “Intracellular infection assays: A. castellanii / M. marinum” value in [1] was found to be 1.06. Besides, in data set [2], the “Intracellular infection assays: BV2 / M. marinum” value amounted to 1.25. Besides, in the data set on D. discoideum GFP-ABD, the “Growth inhibition / Cytotoxicity assays: D. discoideum GFP-ABD” value is recorded as 1.04. Further, in the data set with BV2 cells, the “Growth inhibition / Cytotoxicity assays: BV2 cells” value is recorded as “False”. In addition, in the data set with Mtb H37Rv in THP-1, the “Intracelullar MIC90 in THP-1” value is 0.61 µM and the “Extracellular MIC90/ Inracellular MIC90” value is listed as 6.88. In addition, the “Extracellular MIC90” value in the data set on Mtb H37Rv is reported as 4.2 µM.
For `CCc1ccc(CN2CCC3(CC2)OCCc2sccc23)s1` [GSK2200160A], the “Antibiotic assays: M. marinum luxCDABE” value in the data set on M. marinum luxCDABE is listed as 0.35. For the same molecule, in data set [1], the “Intracellular infection assays: A. castellanii / M. marinum” value is 0.77. Also, the “Intracellular infection assays: BV2 / M. marinum” value in [2] was determined as 1.09. In addition, the “Growth inhibition / Cytotoxicity assays: D. discoideum GFP-ABD” value with D. discoideum GFP-ABD came out at 0.03. The “Growth inhibition / Cytotoxicity assays: BV2 cells” value with BV2 cells is “False”. In the data set with Mtb H37Rv in THP-1, the “Intracelullar MIC90 in THP-1” value is given as 0.21 µM and the “Extracellular MIC90/ Inracellular MIC90” value is 4.76. In addition, the “Extracellular MIC90” value in the data set on Mtb H37Rv is on record as 1 µM.
Take `COc1cc(Cc2cnc(N)nc2N)c2cnccc2c1N(C)C` [GW360240X]: the “Antibiotic assays: M. marinum luxCDABE” value in the data set on M. marinum luxCDABE is 0.74. Moreover, in [1], the “Intracellular infection assays: A. castellanii / M. marinum” value worked out at 1.10. Moreover, the “Intracellular infection assays: BV2 / M. marinum” value in [2] was 1.06. In the data set with D. discoideum GFP-ABD, the “Growth inhibition / Cytotoxicity assays: D. discoideum GFP-ABD” value worked out at 1.13. Also, the “Growth inhibition / Cytotoxicity assays: BV2 cells” value in the data set on BV2 cells was “False”. For the same molecule, in the data set on Mtb H37Rv in THP-1, the “Intracelullar MIC90 in THP-1” value is listed as 50 µM and the “Extracellular MIC90/ Inracellular MIC90” value was 0.06. In the data set on Mtb H37Rv, the “Extracellular MIC90” value is on record as 3 µM.
Turning to `CC(C)(C)c1ccc(-c2nnc(SCC(=O)OC3CCCCC3)o2)cc1` [GW859039X], the “Antibiotic assays: M. marinum luxCDABE” value in the data set with M. marinum luxCDABE worked out at 0.075. For the same molecule, in the data set with M. marinum GFP, the “antibiotic activity” value is listed as “strong antibiotic activity”. Besides, in data set [1], the “Intracellular infection assays: A. castellanii / M. marinum” value came to 0.90. For the same molecule, the “Intracellular infection assays: BV2 / M. marinum” value in data set [2] came to 1.04. Also, in [3], the “pXC50(1)” value was determined as 5.03 and the “pXC50(2)” value is recorded as 5.04. In the data set with M. bovis BCG pMV261-fbpA, the “pIC50 Shift (1)” value was found to be 0.43, the “pIC50 Shift (2)” value was found to be 0.42, the “pXC50(1)” value is reported as 4.6 and the “pXC50(2)” value is on record as 4.62. Further, the “Growth inhibition / Cytotoxicity assays: D. discoideum GFP-ABD” value with D. discoideum GFP-ABD turned out to be 0.68. Besides, in the data set on BV2 cells, the “Growth inhibition / Cytotoxicity assays: BV2 cells” value is “False”. Further, in the data set with Mtb H37Rv in THP-1, the “Intracelullar MIC90 in THP-1” value is 5.55 µM and the “Extracellular MIC90/ Inracellular MIC90” value is given as 0.31. Also, the “Extracellular MIC90” value with Mtb H37Rv is recorded as 1.7 µM.
On to `O=C(C=Cc1ccccc1)N1CCN(Cc2ccc3c(c2)OCO3)CC1` [SB-516933], for which the “Antibiotic assays: M. marinum luxCDABE” value in the data set on M. marinum luxCDABE turned out to be 0.41. Further, the “Intracellular infection assays: A. castellanii / M. marinum” value in data set [1] came to 1.12. In addition, the “Intracellular infection assays: BV2 / M. marinum” value in [2] stood at 1.10. In the data set on D. discoideum GFP-ABD, the “Growth inhibition / Cytotoxicity assays: D. discoideum GFP-ABD” value is recorded as 0.97. Besides, the “Growth inhibition / Cytotoxicity assays: BV2 cells” value with BV2 cells is “False”. In the data set on Mtb H37Rv in THP-1, the “Intracelullar MIC90 in THP-1” value is on record as 5.55 µM and the “Extracellular MIC90/ Inracellular MIC90” value is recorded as 0.67. Also, the “Extracellular MIC90” value in the data set on Mtb H37Rv is on record as 3.7 µM.
Consider `O=C(c1[nH]nc2c1CCCC2)N1CCN(Cc2ccc3c(c2)OCO3)CC1` [SB-712970], for which the “Antibiotic assays: M. marinum luxCDABE” value in the data set with M. marinum luxCDABE worked out at 0.00. Besides, the “Intracellular infection assays: A. castellanii / M. marinum” value in [1] came out at 1.13. Further, in data set [2], the “Intracellular infection assays: BV2 / M. marinum” value was found to be 1.28. The “Growth inhibition / Cytotoxicity assays: D. discoideum GFP-ABD” value in the data set with D. discoideum GFP-ABD is on record as 0.79. Also, the “Growth inhibition / Cytotoxicity assays: BV2 cells” value in the data set on BV2 cells was “False”. Besides, in the data set on Mtb H37Rv in THP-1, the “Intracelullar MIC90 in THP-1” value is 5.55 µM and the “Extracellular MIC90/ Inracellular MIC90” value is 0.81. Moreover, the “Extracellular MIC90” value in the data set with Mtb H37Rv was 4.5 µM.
Regarding `CCCCc1ccc(C(=O)Nc2nccc3ccccc23)nc1` [SB-746177], the “Antibiotic assays: M. marinum luxCDABE” value in the data set with M. marinum luxCDABE was 0.00. Further, the “Intracellular infection assays: A. castellanii / M. marinum” value in data set [1] was determined as 1.01. Besides, in data set [2], the “Intracellular infection assays: BV2 / M. marinum” value was determined as 1.27. In the data set on D. discoideum GFP-ABD, the “Growth inhibition / Cytotoxicity assays: D. discoideum GFP-ABD” value was 0.92. Moreover, the “Growth inhibition / Cytotoxicity assays: BV2 cells” value in the data set on BV2 cells is given as “False”. Further, in the data set with Mtb H37Rv in THP-1, the “Intracelullar MIC90 in THP-1” value is reported as 1.85 µM and the “Extracellular MIC90/ Inracellular MIC90” value is on record as 4.97. Moreover, the “Extracellular MIC90” value in the data set with Mtb H37Rv is on record as 9.2 µM.
As for `NCC[C@H](O)C(=O)N[C@@H]1C[C@H](N)[C@@H](O[C@H]2O[C@H](CN)[C@@H](O)[C@H](O)[C@H]2O)[C@H](O)[C@H]1O[C@H]1O[C@H](CO)[C@@H](O)[C@H](N)[C@H]1O` [amikacin, reference compound], the “effect of amikacin on intracellular mycobacteria growth” value in data set [2] was “has an effect on mycobacteria growth inside BV2 cells; also recorded: exerts a significant effect on intracellular bacteria”. Further, in data set [4], the “cellular permeability” value is on record as “low cellular permeability”.

Values taken from PMC5834492, “Antimycobacterial drug discovery using Mycobacteria-infected amoebae identifies anti-infectives and new molecular targets” (Scientific Reports, 2018).
